Measured values as given in ChEMBL document CHEMBL1909046, “DrugMatrix in vitro pharmacology data”.

What was measured:
[1] = biological target: T1, Polyunsaturated fatty acid lipoxygenase ALOX15 (Oryctolagus cuniculus, UniProt P12530); assay: biochemical; assay type: tissue-based, Reticulocytes; details: reticulocytes;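 note: inhibition of 15-lipoxygenase enzyme activity measured with linoleic acid as the substrate; in other assays of this panel Not Active means under 50% inhibition at 10 µM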
T1 sequence (P12530 whole entry): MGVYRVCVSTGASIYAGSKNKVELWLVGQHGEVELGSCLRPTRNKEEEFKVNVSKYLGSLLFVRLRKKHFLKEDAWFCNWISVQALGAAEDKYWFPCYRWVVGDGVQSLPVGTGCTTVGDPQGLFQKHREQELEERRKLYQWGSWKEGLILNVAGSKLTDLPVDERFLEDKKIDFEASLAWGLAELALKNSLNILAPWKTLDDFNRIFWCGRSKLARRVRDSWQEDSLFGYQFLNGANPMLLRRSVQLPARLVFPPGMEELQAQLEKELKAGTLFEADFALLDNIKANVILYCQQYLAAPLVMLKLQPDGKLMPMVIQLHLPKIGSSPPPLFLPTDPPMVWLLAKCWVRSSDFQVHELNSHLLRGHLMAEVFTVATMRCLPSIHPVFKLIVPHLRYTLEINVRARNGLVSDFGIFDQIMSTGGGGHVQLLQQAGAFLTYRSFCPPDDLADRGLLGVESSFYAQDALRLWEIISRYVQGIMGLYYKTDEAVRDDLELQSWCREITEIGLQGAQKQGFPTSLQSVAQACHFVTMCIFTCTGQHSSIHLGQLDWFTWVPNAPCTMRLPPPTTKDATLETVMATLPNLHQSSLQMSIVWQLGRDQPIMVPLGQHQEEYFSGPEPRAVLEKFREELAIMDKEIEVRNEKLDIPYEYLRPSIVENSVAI

[2] = biological target: Melanocortin receptor 5 (Homo sapiens, UniProt P33032); assay type: cell membranes, HEK293, Membrane; details: hek293; note: in other assays of this panel Not Active means under 50% inhibition at 10 µM
Melanocortin receptor 5, sequence (P33032 whole entry): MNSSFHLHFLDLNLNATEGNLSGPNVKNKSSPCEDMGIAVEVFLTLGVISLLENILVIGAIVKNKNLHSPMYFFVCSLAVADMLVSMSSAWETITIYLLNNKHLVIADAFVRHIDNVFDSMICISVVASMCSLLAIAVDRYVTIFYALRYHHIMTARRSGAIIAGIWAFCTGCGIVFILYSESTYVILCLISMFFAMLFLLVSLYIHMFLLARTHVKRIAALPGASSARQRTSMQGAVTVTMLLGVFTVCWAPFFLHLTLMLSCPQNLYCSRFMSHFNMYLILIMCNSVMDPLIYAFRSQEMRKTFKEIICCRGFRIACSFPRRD

[3] = biological target: Cytochrome P450 2C9 (Homo sapiens, UniProt P11712); details: bti-tn-5b1-4; note: in other assays of this panel Not Active means under 50% inhibition at 10 µM
Cytochrome P450 2C9, sequence (P11712 whole entry): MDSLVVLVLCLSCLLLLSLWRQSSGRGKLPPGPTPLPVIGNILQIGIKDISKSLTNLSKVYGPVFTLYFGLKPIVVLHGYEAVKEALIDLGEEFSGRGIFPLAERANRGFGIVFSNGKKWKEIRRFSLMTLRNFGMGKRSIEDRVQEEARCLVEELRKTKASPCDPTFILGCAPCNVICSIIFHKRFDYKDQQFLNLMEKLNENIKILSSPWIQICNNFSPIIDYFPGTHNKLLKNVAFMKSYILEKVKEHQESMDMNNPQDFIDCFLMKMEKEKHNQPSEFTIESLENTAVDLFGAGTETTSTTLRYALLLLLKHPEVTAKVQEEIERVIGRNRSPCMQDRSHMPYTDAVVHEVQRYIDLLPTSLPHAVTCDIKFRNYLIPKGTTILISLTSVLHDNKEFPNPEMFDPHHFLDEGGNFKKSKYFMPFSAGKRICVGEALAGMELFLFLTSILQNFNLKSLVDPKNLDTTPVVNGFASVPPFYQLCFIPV

[4] = biological target: Tyrosine-protein kinase Lck (Homo sapiens, UniProt P06239); assay: DRUGMATRIX: Protein Tyrosine Kinase, LCK enzyme inhibition (substrate: Poly(Glu:Tyr)); assay type: cell-based, Insect cells; details: insect cells; Not Active = under 50% inhibition at 10 µM
Tyrosine-protein kinase Lck, sequence (P06239 whole entry): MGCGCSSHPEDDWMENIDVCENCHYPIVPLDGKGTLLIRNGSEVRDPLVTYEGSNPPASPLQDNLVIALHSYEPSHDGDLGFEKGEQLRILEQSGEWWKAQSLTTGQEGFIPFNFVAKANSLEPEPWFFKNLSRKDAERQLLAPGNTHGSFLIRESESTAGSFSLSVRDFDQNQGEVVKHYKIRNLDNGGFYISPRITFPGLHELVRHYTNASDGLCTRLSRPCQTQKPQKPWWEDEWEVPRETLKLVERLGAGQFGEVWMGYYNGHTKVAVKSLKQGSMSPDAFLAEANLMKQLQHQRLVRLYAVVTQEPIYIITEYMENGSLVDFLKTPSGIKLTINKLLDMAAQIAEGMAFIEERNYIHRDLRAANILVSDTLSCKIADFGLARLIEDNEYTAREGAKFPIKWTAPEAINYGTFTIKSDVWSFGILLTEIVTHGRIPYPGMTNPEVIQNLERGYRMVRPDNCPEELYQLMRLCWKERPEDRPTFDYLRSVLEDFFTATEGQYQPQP

[5] = DRUGMATRIX: Calcium Channel Type L, Phenylalkylamine radioligand binding (ligand: [3H] (-)-Desmethoxyverapamil (D-888)); assay type: cell membranes, Rattus norvegicus, Wistar, Brain, Membrane; details: Not Active = under 50% inhibition at 10 µM
[6] = biological target: 5-hydroxytryptamine receptor 6 (Homo sapiens, UniProt P50406); assay type: cell membranes, HeLa, Membrane; details: hela; note: in other assays of this panel Not Active means under 50% inhibition at 10 µM
5-hydroxytryptamine receptor 6, sequence (P50406 whole entry): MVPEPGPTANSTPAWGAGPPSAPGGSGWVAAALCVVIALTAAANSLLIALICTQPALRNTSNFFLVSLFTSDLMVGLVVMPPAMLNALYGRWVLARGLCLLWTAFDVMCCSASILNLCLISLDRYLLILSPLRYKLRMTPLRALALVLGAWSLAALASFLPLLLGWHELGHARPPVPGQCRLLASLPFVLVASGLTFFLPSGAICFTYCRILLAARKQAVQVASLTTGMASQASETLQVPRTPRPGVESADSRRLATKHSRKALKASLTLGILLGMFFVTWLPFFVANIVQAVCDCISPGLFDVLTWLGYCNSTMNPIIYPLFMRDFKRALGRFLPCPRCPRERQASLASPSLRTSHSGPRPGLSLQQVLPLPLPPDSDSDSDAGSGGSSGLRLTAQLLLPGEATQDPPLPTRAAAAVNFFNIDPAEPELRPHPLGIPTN

[7] = biological target: T2, C-X-C chemokine receptor type 1 (Homo sapiens, UniProt P25024); note: in other assays of this panel Not Active means under 50% inhibition at 10 µM
T2 sequence (P25024 whole entry): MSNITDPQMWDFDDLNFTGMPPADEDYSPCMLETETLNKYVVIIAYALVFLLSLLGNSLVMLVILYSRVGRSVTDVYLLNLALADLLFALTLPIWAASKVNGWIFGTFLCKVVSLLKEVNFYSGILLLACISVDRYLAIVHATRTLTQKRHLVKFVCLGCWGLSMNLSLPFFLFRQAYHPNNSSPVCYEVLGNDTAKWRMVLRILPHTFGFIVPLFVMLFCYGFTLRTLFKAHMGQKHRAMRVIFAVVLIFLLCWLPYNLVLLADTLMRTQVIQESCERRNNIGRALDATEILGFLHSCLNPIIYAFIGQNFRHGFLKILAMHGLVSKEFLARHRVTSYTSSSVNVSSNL

[8] = biological target: Melanocortin receptor 3 (Homo sapiens, UniProt P41968); assay type: cell membranes, Membrane; details: hek293; note: in other assays of this panel Not Active means under 50% inhibition at 10 µM
Melanocortin receptor 3, sequence (P41968 whole entry): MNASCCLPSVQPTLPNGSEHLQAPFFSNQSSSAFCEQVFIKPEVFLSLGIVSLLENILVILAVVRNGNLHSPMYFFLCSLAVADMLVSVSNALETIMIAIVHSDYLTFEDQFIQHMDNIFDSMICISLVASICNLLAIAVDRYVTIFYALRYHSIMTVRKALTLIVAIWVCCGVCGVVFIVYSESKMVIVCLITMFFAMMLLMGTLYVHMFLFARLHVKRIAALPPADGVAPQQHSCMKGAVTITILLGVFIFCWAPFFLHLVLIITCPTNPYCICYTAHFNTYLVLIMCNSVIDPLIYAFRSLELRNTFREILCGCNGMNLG

[9] = DRUGMATRIX: Serotonin (5-Hydroxytryptamine) 5-HT3 radioligand binding (ligand: [3H] GR-65630); assay type: cell membranes, Membrane; details: hek293; Not Active = under 50% inhibition at 10 µM
[10] = DRUGMATRIX: Phorbol Ester radioligand binding (ligand: [3H] PDBu); assay type: cell membranes, Mus musculus, ICR, Brain, Membrane; details: Not Active = under 50% inhibition at 10 µM
[11] = biological target: C-C chemokine receptor type 5 (Homo sapiens, UniProt P51681); assay type: cell membranes, Membrane; details: hek293; note: in other assays of this panel Not Active means under 50% inhibition at 10 µM
C-C chemokine receptor type 5, sequence (P51681 whole entry): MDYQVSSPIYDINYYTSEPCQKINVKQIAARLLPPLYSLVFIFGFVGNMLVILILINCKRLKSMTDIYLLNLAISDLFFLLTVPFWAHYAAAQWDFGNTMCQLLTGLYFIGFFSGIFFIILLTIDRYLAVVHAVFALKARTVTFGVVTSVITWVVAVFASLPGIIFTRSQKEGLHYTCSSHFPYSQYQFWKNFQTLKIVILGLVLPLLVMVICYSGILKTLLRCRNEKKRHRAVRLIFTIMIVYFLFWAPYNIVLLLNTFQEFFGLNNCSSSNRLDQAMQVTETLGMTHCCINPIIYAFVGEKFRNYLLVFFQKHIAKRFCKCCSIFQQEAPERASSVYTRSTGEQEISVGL

[12] = biological target: Protein phosphatase 3 catalytic subunit alpha (Homo sapiens, UniProt Q08209); set-up: species or system Escherichia coli
[13] = biological target: T3, Estrogen receptor (Homo sapiens, UniProt P03372); details: sf9; note: in other assays of this panel Not Active means under 50% inhibition at 10 µM
T3 sequence (P03372 whole entry): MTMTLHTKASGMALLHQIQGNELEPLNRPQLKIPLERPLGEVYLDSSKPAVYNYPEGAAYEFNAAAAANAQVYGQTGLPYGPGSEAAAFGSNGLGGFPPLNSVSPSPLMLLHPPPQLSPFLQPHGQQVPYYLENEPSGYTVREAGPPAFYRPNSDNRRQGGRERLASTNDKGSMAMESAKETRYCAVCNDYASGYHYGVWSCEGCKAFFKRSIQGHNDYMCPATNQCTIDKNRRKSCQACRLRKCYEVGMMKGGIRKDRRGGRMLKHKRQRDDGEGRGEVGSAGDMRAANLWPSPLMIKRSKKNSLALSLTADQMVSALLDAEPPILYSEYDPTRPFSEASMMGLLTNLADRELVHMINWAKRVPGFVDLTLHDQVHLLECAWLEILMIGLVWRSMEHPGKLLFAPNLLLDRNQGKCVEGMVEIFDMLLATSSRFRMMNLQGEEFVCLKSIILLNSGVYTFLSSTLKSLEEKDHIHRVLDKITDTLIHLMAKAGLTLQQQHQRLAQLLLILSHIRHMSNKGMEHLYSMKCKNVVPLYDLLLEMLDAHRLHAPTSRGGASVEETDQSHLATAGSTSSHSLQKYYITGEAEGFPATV

[14] = biological target: T4, Alpha-2A adrenergic receptor (Homo sapiens, UniProt P08913); assay type: cell membranes, Sf9, Membrane; details: sf9; note: in other assays of this panel Not Active means under 50% inhibition at 10 µM
T4 sequence (P08913 whole entry): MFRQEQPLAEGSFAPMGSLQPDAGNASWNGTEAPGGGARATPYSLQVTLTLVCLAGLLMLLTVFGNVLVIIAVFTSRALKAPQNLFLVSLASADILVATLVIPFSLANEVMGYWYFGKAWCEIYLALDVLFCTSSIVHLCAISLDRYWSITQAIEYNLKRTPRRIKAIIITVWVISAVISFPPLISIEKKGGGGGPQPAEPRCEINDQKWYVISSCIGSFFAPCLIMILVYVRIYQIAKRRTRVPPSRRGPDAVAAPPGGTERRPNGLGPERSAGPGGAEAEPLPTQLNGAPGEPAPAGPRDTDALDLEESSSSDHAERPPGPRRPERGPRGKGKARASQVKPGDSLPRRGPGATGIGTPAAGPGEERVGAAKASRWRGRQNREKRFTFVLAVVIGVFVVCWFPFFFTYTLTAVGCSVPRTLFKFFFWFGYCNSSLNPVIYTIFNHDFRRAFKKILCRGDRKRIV

O=c1cc(-c2ccccc2)oc2c1ccc1ccccc12 [ALPHA-NAPHTHOFLAVONE]
Not Active: IC50 [1] | IC50 [2] | IC50 [3] | Ki [3] | IC50 [4] | IC50 [5] | Ki [5] | IC50 [6] | IC50 [7] | IC50 [8] | IC50 [9] | Ki [9] | IC50 [10] | Ki [10] | IC50 [11] | IC50 [12] | IC50 [13] | IC50 [14]

NCC[C@H](O)C(=O)N[C@@H]1C[C@H](N)[C@@H](O[C@H]2O[C@H](CN)[C@@H](O)[C@H](O)[C@H]2O)[C@H](O)[C@H]1O[C@H]1O[C@H](CO)[C@@H](O)[C@H](N)[C@H]1O [AMIKACIN]
Not Active: IC50 [1] | IC50 [2] | IC50 [3] | Ki [3] | IC50 [4] | IC50 [5] | Ki [5] | IC50 [6] | IC50 [7] | IC50 [8] | IC50 [9] | Ki [9] | IC50 [10] | Ki [10] | IC50 [11] | IC50 [12] | IC50 [13] | IC50 [14]

CCOC(=O)OC(C)OC1=C(C(=O)Nc2ccccn2)N(C)S(=O)(=O)c2ccccc21 (stereo not given) [AMPIROXICAM]
Not Active: IC50 [1] | IC50 [2] | IC50 [3] | Ki [3] | IC50 [4] | IC50 [5] | Ki [5] | IC50 [6] | IC50 [7] | IC50 [8] | IC50 [9] | Ki [9] | IC50 [10] | Ki [10] | IC50 [11] | IC50 [12] | IC50 [13] | IC50 [14]

N#C[C@H](O[C@@H]1O[C@H](CO[C@@H]2O[C@H](CO)[C@@H](O)[C@H](O)[C@H]2O)[C@@H](O)[C@H](O)[C@H]1O)c1ccccc1 [AMYGDALIN]
Not Active: IC50 [1] | IC50 [2] | IC50 [3] | Ki [3] | IC50 [4] | IC50 [5] | Ki [5] | IC50 [6] | IC50 [7] | IC50 [8] | IC50 [9] | Ki [9] | IC50 [10] | Ki [10] | IC50 [11] | IC50 [12] | IC50 [13] | IC50 [14]

C=C1[C@@H]2CCC3[C@@](CC[C@@H]4[C@H](C(=O)O)C[C@@H](O[C@@H]5O[C@H](CO)[C@@H](OS(=O)(=O)[O-])[C@H](OS(=O)(=O)[O-])[C@H]5OC(=O)CC(C)C)C[C@@]34C)(C2)[C@@H]1O.[K+].[K+] (stereo not given in full) [ATRACTYLOSIDE]
Not Active: IC50 [1] | IC50 [2] | IC50 [3] | Ki [3] | IC50 [4] | IC50 [5] | Ki [5] | IC50 [6] | IC50 [7] | IC50 [8] | IC50 [9] | Ki [9] | IC50 [10] | Ki [10] | IC50 [11] | IC50 [12] | IC50 [13] | IC50 [14]
